Assay results from patent US8192962B2, “Processes for detecting toxic substances” (Daikin Industries, Ltd., priority 2001, dated 2012).

System: Metabolism protein genes
Experiment: DNA chip mRNA expression in yeast, metabolism protein genes (Table 7)
Type: cell-based, Saccharomyces cerevisiae S288C
In short: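 S. cerevisiae S288C grown at 25° C in YPD were exposed in log phase for two hours to one toxic chemical at a growth-inhibiting, non-lethal concentration; untreated cells served as control. Poly(A) mRNA was reverse-transcribed with Cy3/Cy5-dUTP and hybridized to a whole-genome yeast DNA chip at 65° C for over 12 hours; values are fluorescence ratios versus untreated.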

COc1cc(CNC(=O)CCCCC=CC(C)C)ccc1O [(12), 8-methyl-N-vanillyl-6-nonenamide]
2.8: The level of expressed mRNA in the presence of chemical substance/The level of expressed mRNA in the absence of chemical substance (yeast gene YDL174C)
0.5: level of expressed mRNA in the presence/in the absence of chemical substance (yeast gene YCR034W) | level of expressed mRNA in the presence/in the absence of chemical substance (yeast gene YDR123C) | level of expressed mRNA in the presence/in the absence of chemical substance (yeast gene YHR210C)
0.7: The level of expressed mRNA in the presence of chemical substance/The level of expressed mRNA in the absence of chemical substance (yeast gene YCL064C) | The level of expressed mRNA in the presence of chemical substance/The level of expressed mRNA in the absence of chemical substance (yeast gene YDR019C) | The level of expressed mRNA in the presence of chemical substance/The level of expressed mRNA in the absence of chemical substance (yeast gene YGL022W) | level of expressed mRNA in the presence/in the absence of chemical substance (yeast gene YGR191W) | level of expressed mRNA in the presence/in the absence of chemical substance (yeast gene YHR123W) | The level of expressed mRNA in the presence of chemical substance/The level of expressed mRNA in the absence of chemical substance (yeast gene YIL167W) | The level of expressed mRNA in the presence of chemical substance/The level of expressed mRNA in the absence of chemical substance (yeast gene YJL088W)
1.4: level of expressed mRNA in the presence/in the absence of chemical substance (yeast gene YDR050C) | level of expressed mRNA in the presence/in the absence of chemical substance (yeast gene YDR345C) | The level of expressed mRNA in the presence of chemical substance/The level of expressed mRNA in the absence of chemical substance (yeast gene YIL155C) | The level of expressed mRNA in the presence of chemical substance/The level of expressed mRNA in the absence of chemical substance (yeast gene YIR034C) | The level of expressed mRNA in the presence of chemical substance/The level of expressed mRNA in the absence of chemical substance (yeast gene YJR137C)
1.3: The level of expressed mRNA in the presence of chemical substance/The level of expressed mRNA in the absence of chemical substance (yeast gene YBR029C) | The level of expressed mRNA in the presence of chemical substance/The level of expressed mRNA in the absence of chemical substance (yeast gene YCR098C) | level of expressed mRNA in the presence/in the absence of chemical substance (yeast gene YDR178W) | The level of expressed mRNA in the presence of chemical substance/The level of expressed mRNA in the absence of chemical substance (yeast gene YDR502C) | level of expressed mRNA in the presence/in the absence of chemical substance (yeast gene YER120W) | The level of expressed mRNA in the presence of chemical substance/The level of expressed mRNA in the absence of chemical substance (yeast gene YER178W) | The level of expressed mRNA in the presence of chemical substance/The level of expressed mRNA in the absence of chemical substance (yeast gene YGL209W) | The level of expressed mRNA in the presence of chemical substance/The level of expressed mRNA in the absence of chemical substance (yeast gene YGR282C) | The level of expressed mRNA in the presence of chemical substance/The level of expressed mRNA in the absence of chemical substance (yeast gene YJL031C) | level of expressed mRNA in the presence/in the absence of chemical substance (yeast gene YJL167W)
1.2: The level of expressed mRNA in the presence of chemical substance/The level of expressed mRNA in the absence of chemical substance (yeast gene YAL038W) | The level of expressed mRNA in the presence of chemical substance/The level of expressed mRNA in the absence of chemical substance (yeast gene YBR183W) | The level of expressed mRNA in the presence of chemical substance/The level of expressed mRNA in the absence of chemical substance (yeast gene YFL030W) | The level of expressed mRNA in the presence of chemical substance/The level of expressed mRNA in the absence of chemical substance (yeast gene YHR176W) | The level of expressed mRNA in the presence of chemical substance/The level of expressed mRNA in the absence of chemical substance (yeast gene YIR036C)
1.1: The level of expressed mRNA in the presence of chemical substance/The level of expressed mRNA in the absence of chemical substance (yeast gene YAL012W) | level of expressed mRNA in the presence/in the absence of chemical substance (yeast gene YBR011C) | The level of expressed mRNA in the presence of chemical substance/The level of expressed mRNA in the absence of chemical substance (yeast gene YDR516C) | level of expressed mRNA in the presence/in the absence of chemical substance (yeast gene YEL063C) | level of expressed mRNA in the presence/in the absence of chemical substance (yeast gene YGL205W) | The level of expressed mRNA in the presence of chemical substance/The level of expressed mRNA in the absence of chemical substance (yeast gene YIL107C) | The level of expressed mRNA in the presence of chemical substance/The level of expressed mRNA in the absence of chemical substance (yeast gene YIL154C) | The level of expressed mRNA in the presence of chemical substance/The level of expressed mRNA in the absence of chemical substance (yeast gene YJL172W) | The level of expressed mRNA in the presence of chemical substance/The level of expressed mRNA in the absence of chemical substance (yeast gene YJL219W)
1.9: The level of expressed mRNA in the presence of chemical substance/The level of expressed mRNA in the absence of chemical substance (yeast gene YGR244C)
0.8: level of expressed mRNA in the presence/in the absence of chemical substance (yeast gene YBR003W) | level of expressed mRNA in the presence/in the absence of chemical substance (yeast gene YBR020W) | The level of expressed mRNA in the presence of chemical substance/The level of expressed mRNA in the absence of chemical substance (yeast gene YBR023C) | level of expressed mRNA in the presence/in the absence of chemical substance (yeast gene YCR010C) | level of expressed mRNA in the presence/in the absence of chemical substance (yeast gene YDR073W) | level of expressed mRNA in the presence/in the absence of chemical substance (yeast gene YDR483W) | The level of expressed mRNA in the presence of chemical substance/The level of expressed mRNA in the absence of chemical substance (yeast gene YER069W) | The level of expressed mRNA in the presence of chemical substance/The level of expressed mRNA in the absence of chemical substance (yeast gene YGL248W) | level of expressed mRNA in the presence/in the absence of chemical substance (yeast gene YGR096W) | The level of expressed mRNA in the presence of chemical substance/The level of expressed mRNA in the absence of chemical substance (yeast gene YGR194C)
1.6: The level of expressed mRNA in the presence of chemical substance/The level of expressed mRNA in the absence of chemical substance (yeast gene YCL018W)
0.9: The level of expressed mRNA in the presence of chemical substance/The level of expressed mRNA in the absence of chemical substance (yeast gene YBR222C) | The level of expressed mRNA in the presence of chemical substance/The level of expressed mRNA in the absence of chemical substance (yeast gene YCR048W) | level of expressed mRNA in the presence/in the absence of chemical substance (yeast gene YDR277C) | level of expressed mRNA in the presence/in the absence of chemical substance (yeast gene YDR284C) | The level of expressed mRNA in the presence of chemical substance/The level of expressed mRNA in the absence of chemical substance (yeast gene YDR497C) | level of expressed mRNA in the presence/in the absence of chemical substance (yeast gene YER015W) | The level of expressed mRNA in the presence of chemical substance/The level of expressed mRNA in the absence of chemical substance (yeast gene YER096W) | level of expressed mRNA in the presence/in the absence of chemical substance (yeast gene YFL011W) | level of expressed mRNA in the presence/in the absence of chemical substance (yeast gene YGL115W) | The level of expressed mRNA in the presence of chemical substance/The level of expressed mRNA in the absence of chemical substance (yeast gene YGR055W) | level of expressed mRNA in the presence/in the absence of chemical substance (yeast gene YGR288W) | level of expressed mRNA in the presence/in the absence of chemical substance (yeast gene YHR025W) | The level of expressed mRNA in the presence of chemical substance/The level of expressed mRNA in the absence of chemical substance (yeast gene YHR111W) | level of expressed mRNA in the presence/in the absence of chemical substance (yeast gene YIL006W)
0.6: level of expressed mRNA in the presence/in the absence of chemical substance (yeast gene YDR408C) | level of expressed mRNA in the presence/in the absence of chemical substance (yeast gene YGL012W) | The level of expressed mRNA in the presence of chemical substance/The level of expressed mRNA in the absence of chemical substance (yeast gene YGL126W) | The level of expressed mRNA in the presence of chemical substance/The level of expressed mRNA in the absence of chemical substance (yeast gene YHR137W) | level of expressed mRNA in the presence/in the absence of chemical substance (yeast gene YJL121C)
1.7: The level of expressed mRNA in the presence of chemical substance/The level of expressed mRNA in the absence of chemical substance (yeast gene YBR256C) | The level of expressed mRNA in the presence of chemical substance/The level of expressed mRNA in the absence of chemical substance (yeast gene YCL009C) | The level of expressed mRNA in the presence of chemical substance/The level of expressed mRNA in the absence of chemical substance (yeast gene YER026C) | The level of expressed mRNA in the presence of chemical substance/The level of expressed mRNA in the absence of chemical substance (yeast gene YER053C) | The level of expressed mRNA in the presence of chemical substance/The level of expressed mRNA in the absence of chemical substance (yeast gene YFR047C) | The level of expressed mRNA in the presence of chemical substance/The level of expressed mRNA in the absence of chemical substance (yeast gene YJL068C)
1.0: level of expressed mRNA in the presence/in the absence of chemical substance (yeast gene YER081W) | The level of expressed mRNA in the presence of chemical substance/The level of expressed mRNA in the absence of chemical substance (yeast gene YFL031W) | The level of expressed mRNA in the presence of chemical substance/The level of expressed mRNA in the absence of chemical substance (yeast gene YFL056C) | The level of expressed mRNA in the presence of chemical substance/The level of expressed mRNA in the absence of chemical substance (yeast gene YFL057C) | level of expressed mRNA in the presence/in the absence of chemical substance (yeast gene YGR204W) | The level of expressed mRNA in the presence of chemical substance/The level of expressed mRNA in the absence of chemical substance (yeast gene YJL099W) | level of expressed mRNA in the presence/in the absence of chemical substance (yeast gene YJL216C) | level of expressed mRNA in the presence/in the absence of chemical substance (yeast gene YJR077C)
0.4: The level of expressed mRNA in the presence of chemical substance/The level of expressed mRNA in the absence of chemical substance (yeast gene YDR380W) | level of expressed mRNA in the presence/in the absence of chemical substance (yeast gene YDR400W)
4.3: The level of expressed mRNA in the presence of chemical substance/The level of expressed mRNA in the absence of chemical substance (yeast gene YFL014W)
1.5: The level of expressed mRNA in the presence of chemical substance/The level of expressed mRNA in the absence of chemical substance (yeast gene YGR037C) | The level of expressed mRNA in the presence of chemical substance/The level of expressed mRNA in the absence of chemical substance (yeast gene YGR256W) | The level of expressed mRNA in the presence of chemical substance/The level of expressed mRNA in the absence of chemical substance (yeast gene YHR174W) | The level of expressed mRNA in the presence of chemical substance/The level of expressed mRNA in the absence of chemical substance (yeast gene YIL045W)
